This passage reports inhibition and IC50 results from patent publication US7196110B2, “N-substituted tricyclic 3-aminopyrazoles as inhibitors for the treatment of cell proliferative disorders” (Janssen Phamaceutica N.V., priority 2002, dated 2007).

SMILES strings stand for the structures. Like-named read-outs stand apart in the source and are kept apart here.

This test addresses T1, PDGF-receptor beta enzyme comprising the tyrosine kinase domain (Homo sapiens, UniProt P09619).
T1 construct: from amino acid 545 to 1106 of GenBank Access NO: AAA36427
Kind of test: Inhibition of PDGF-receptor kinase activity (cell-free, PLC1 peptide, 33P Flashplate). In kind it is biochemical. As to conditions: for inhibition at 10 µM: compound at 10 uM, read-out: Percent Inhibition @ 10 uM. An outline of the steps: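 Recombinant kinase domain (aa 545–1106) phosphorylated a biotinylated PLC1 peptide with 5 μM ATP plus 33P-γ-ATP, in Tris pH 8, MgCl2, Na3VO4 and 1 mM DTT, for 60 min at 30 °C. Retained 33P was counted after washing. IC50 is the concentration halving activity versus no-inhibitor reactions.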

The mark [1] stands for this setting: read-out: IC50 (μM) on PDGF-R kinase activity.
The mark [2] stands for this setting: PDGF-R kinase activity, read-out: IC50.

T1 sequence (P09619 545-1106): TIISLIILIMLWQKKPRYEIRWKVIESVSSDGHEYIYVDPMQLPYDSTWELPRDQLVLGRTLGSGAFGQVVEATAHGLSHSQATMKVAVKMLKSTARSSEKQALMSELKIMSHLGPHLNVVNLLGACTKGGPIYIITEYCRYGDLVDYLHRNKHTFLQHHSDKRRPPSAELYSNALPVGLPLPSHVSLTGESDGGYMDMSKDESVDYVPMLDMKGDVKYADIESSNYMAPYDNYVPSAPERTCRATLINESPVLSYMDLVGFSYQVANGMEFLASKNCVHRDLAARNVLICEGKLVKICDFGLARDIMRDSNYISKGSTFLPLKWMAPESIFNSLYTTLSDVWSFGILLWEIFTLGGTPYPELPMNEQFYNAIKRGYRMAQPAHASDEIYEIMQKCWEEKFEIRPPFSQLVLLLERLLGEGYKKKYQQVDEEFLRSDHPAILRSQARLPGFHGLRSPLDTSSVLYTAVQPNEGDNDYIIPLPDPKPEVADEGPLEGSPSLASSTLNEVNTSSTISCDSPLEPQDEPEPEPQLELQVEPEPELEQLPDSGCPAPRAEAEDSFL

Turning to `COc1cc2c(c3nc(C)oc13)Cc1c(NCc3ccccc3F)n[nH]c1-2` [Compound 574, (2-Fluoro-benzyl)-(4-methoxy-2-methyl-6,9-dihydro-3-oxa-1,6,7-triaza-cyclopenta[b]-as-indacen-8-yl)-amine], the inhibition (usually the drop in the measured response relative to a control, in per cent) at 10 µM (PDGF-R kinase activity) was 99%. The IC50 (in general, the concentration needed to halve the response being measured) under setting [1] is 0.163 µM.
Regarding `Cc1cccc(CNc2[nH]nc3c2Cc2ccc(C)cc2-3)c1` [Compound 314, (3-Methyl-benzyl)-(7-methyl-2,4-dihydro-indeno[1,2-c]pyrazol-3-yl)-amine], the inhibition at 10 µM (PDGF-R kinase activity) was 76%. Also, the IC50 under setting [2] was 0.894 µM.
Taken in the same sequence, the figures for `COc1cc2c(cc1OC)-c1n[nH]c(NCc3ccc(F)c(F)c3)c1C2` [Compound 275, (3,4-Difluoro-benzyl)-(6,7-dimethoxy-2,4-dihydro-indeno[1,2-c]pyrazol-3-yl)-amine] were 80.5% and 0.501 µM.
For `COc1cc2c(cc1OC)-c1n[nH]c(NCc3c(F)cccc3F)c1C2` [Compound 321, (2,6-Difluoro-benzyl)-(6,7-dimethoxy-2,4-dihydro-indeno[1,2-c]pyrazol-3-yl)-amine], in that order: 77% and 0.00745 µM.
For the compound `COc1cc(Nc2[nH]nc3c2Cc2c(OC)cccc2-3)cc(C(F)(F)F)c1` [Compound 417, (5-Methoxy-2,4-dihydro-indeno[1,2-c]pyrazol-3-yl)-(3-methoxy-5-trifluoromethyl-phenyl)-amine], the inhibition at 10 µM (PDGF-R kinase activity) turned out to be 27.5%. Under setting [2], the IC50 is 12.2 µM.
Regarding `CCOc1cc2c(cc1OCC)C(C)c1c-2n[nH]c1Nc1cccc(F)c1` (stereo not shown) [Compound 344, (6,7-Diethoxy-4-methyl-2,4-dihydro-indeno[1,2-c]pyrazol-3-yl)-(3-fluoro-phenyl)-amine], for the setting “PDGF-R kinase activity”, the inhibition at 10 µM stood at 100%. Also, the IC50 under setting [2] is 0.0647 µM.
In the case of `Cc1cccc(CNc2[nH]nc3c2Cc2cc(F)ccc2-3)c1` [Compound 305, (6-Fluoro-2,4-dihydro-indeno[1,2-c]pyrazol-3-yl)-(3-methyl-benzyl)-amine], for the setting “PDGF-R kinase activity”, the inhibition at 10 µM stood at 87%. Under setting [2], the IC50 worked out at 0.458 µM.
Taken in the same sequence, the figures for `COc1ccc(OC)c(CNc2[nH]nc3c2Cc2cc(F)ccc2-3)c1` [Compound 307, (2,5-Dimethoxy-benzyl)-(6-fluoro-2,4-dihydro-indeno[1,2-c]pyrazol-3-yl)-amine] were 59% and 3.4 µM.
`COc1cc2c(cc1OC)-c1n[nH]c(Nc3cccc(OC(C)C)c3)c1C2` [Compound 584, (6,7-Dimethoxy-2,4-dihydro-indeno[1,2-c]pyrazol-3-yl)-(3-isopropoxy-phenyl)-amine]: the inhibition at 10 µM (PDGF-R kinase activity) is 109%. Besides, the IC50 under setting [1] was determined as 0.0111 µM.
As for `COc1cccc(Nc2n[nH]c3c2Cc2c-3cc(OC)c3oc(C)nc23)c1` [Compound 560, (4-Methoxy-2-methyl-6,9-dihydro-3-oxa-1,6,7-triaza-cyclopenta[b]-as-indacen-8-yl)-(3-methoxy-phenyl)-amine], the inhibition at 10 µM (PDGF-R kinase activity) amounted to 102%. Moreover, the IC50 under setting [2] came out at 0.0247 µM.
Taken in the same sequence, the figures for `Nc1ccc2c(c1)Cc1c-2n[nH]c1Nc1cccc(F)c1` [Compound 121, N3-(3-Fluoro-phenyl)-2,4-dihydro-indeno[1,2-c]pyrazole-3,6-diamine] were 92% and 0.143 µM.
Take `COc1cccc(Nc2[nH]nc3c2Cc2cc(OCCCN4CCOCC4)c(OC)cc2-3)c1` [Compound 131, [7-Methoxy-6-(3-morpholin-4-yl-propoxy)-2,4-dihydro-indeno[1,2-c]pyrazol-3-yl]-(3-methoxy-phenyl)-amine]: the inhibition at 10 µM (PDGF-R kinase activity) is 97%. In addition, the IC50 under setting [2] stood at 0.013 µM.
Consider `COCCCOc1ccc2c(c1)Cc1c-2n[nH]c1Nc1ccc(OC)cc1` [Compound 143, (4-Methoxy-phenyl)-[6-(3-methoxy-propoxy)-2,4-dihydro-indeno[1,2-c]pyrazol-3-yl]-amine], for which the inhibition at 10 µM (PDGF-R kinase activity) came out at 67%. The IC50 under setting [2] was determined as 8.12 µM.
On to `Brc1ccc2c(c1)Cc1c-2n[nH]c1Nc1ccccc1` [Compound 158, (6-Bromo-2,4-dihydro-indeno[1,2-c]pyrazol-3-yl)-phenyl-amine], for which, where the note is “PDGF-R kinase activity”, the inhibition at 10 µM was 87.5%. Moreover, the 50% inhibitory concentration (IC50) under setting [2] came to 0.186 µM.
In the case of `CCOC(=O)CCNC(=O)n1nc2c(c1Nc1ccccc1)Cc1cc(OC)c(OC)cc1-2` [Compound 411, 3-[(6,7-Dimethoxy-3-phenlylamino-4H-indeno[1,2-c]pyrazole-2-carbonyl)-amino]-propionic acid ethyl ester], the inhibition at 10 µM (PDGF-R kinase activity) was found to be 14.5%. Besides, the IC50 under setting [2] is 0.0823 µM.
Taken in the same sequence, the figures for `CCOc1cccc(Nc2[nH]nc3c2Cc2c(OCCCO)cccc2-3)c1` [Compound 441, 3-[3-(3-Ethoxy-phenylamino)-2,4-dihydro-indeno[1,2-c]pyrazol-5-yloxy]-propan-1-ol] were 96% and 0.206 µM.
Taken in the same sequence, the figures for `C=C(C)C(=O)OCCNC(=O)n1nc2c(c1Nc1cccc(F)c1)Cc1cc(OC)c(OC)cc1-2` [Compound 528, 2-Methyl-acrylic acid 2-{[3-(3-fluoro-phenylamino)-6,7-dimethoxy-4H-indeno[1,2-c]pyrazole-2-carbonyl]-amino}-ethyl ester] were 93.5% and 0.196 µM.
Taken in the same sequence, the figures for `COc1cc2c(cc1OC)-c1n[nH]c(Nc3ccc(OC(F)(F)F)cc3)c1C2` [Compound 16, (6,7-Dimethoxy-2,4-dihydro-indeno[1,2-c]pyrazol-3-yl)-(4-trifluoromethoxy-phenyl)-amine] were 79% and 4 µM.
Consider `COC(=O)C(NC(=O)n1nc2c(c1Nc1cccc(F)c1)Cc1cc(OC)c(OC)cc1-2)C(C)C` (stereo not shown) [Compound 413, 2-{[3-(3-Fluoro-phenylamino)-6,7-dimethoxy-4H-indeno[1,2-c]pyrazole-2-carbonyl]-amino}-3-methyl-butyric acid methyl ester], for which, where the note is “PDGF-R kinase activity”, the inhibition at 10 µM was 71%. Further, the IC50 under setting [2] turned out to be 1.14 µM.
For `COCn1nc2c(c1Nc1cccc(F)c1)Cc1cc(OC)c(OC)cc1-2` [Compound 475, (6,7-Dimethoxy-2-methoxymethyl-2,4-dihydro-indeno[1,2-c]pyrazol-3-yl)-(3-fluoro-phenyl)-amine], in that order: 65.5% and 5.03 µM.
Taken in the same sequence, the figures for `COc1cc2c(cc1OC)-c1n[nH]c(Nc3ccc(F)c(Cl)c3)c1C2` [Compound 53, (3-Chloro-4-fluoro-phenyl)-(6,7-dimethoxy-2,4-dihydro-indeno[1,2-c]pyrazol-3-yl)-amine] were 94% and 0.0586 µM.
Turning to `COc1ccc2c(c1)-c1n[nH]c(Nc3ccc(OC(F)(F)F)cc3)c1C2` [Compound 177, (7-Methoxy-2,4-dihydro-indeno[1,2-c]pyrazol-3-yl)-(4-trifluoromethoxy-phenyl)-amine], the inhibition at 10 µM (PDGF-R kinase activity) was determined as 65.5%. Besides, the IC50 under setting [2] is 0.523 µM.
Taken in the same sequence, the figures for `Brc1ccc2c(c1)Cc1c-2n[nH]c1Nc1cccnc1` [Compound 152, (6-Bromo-2,4-dihydro-indeno[1,2-c]pyrazol-3-yl)-pyridin-3-yl-amine] were 80% and 0.174 µM.
For `CC(C)Oc1cc2c(cc1OC(C)C)C(C)c1c-2n[nH]c1Nc1ccc(F)cc1` (stereo not shown) [Compound 356, (6,7-Diisopropoxy-4-methyl-2,4-dihydro-indeno[1,2-c]pyrazol-3-yl)-(4-fluoro-phenyl)-amine], in that order: 70% and 1.95 µM.
Regarding `COc1ccc(OC)c(CNc2[nH]nc3c2Cc2cc(OC)c(OC)cc2-3)c1` [Compound 274, (2,5-Dimethoxy-benzyl)-(6,7-dimethoxy-2,4-dihydro-indeno[1,2-c]pyrazol-3-yl)-amine], for the setting “PDGF-R kinase activity”, the inhibition at 10 µM was determined as 57.5%. For the same compound, the IC50 under setting [2] was 2.61 µM.
For `COc1cc2c(cc1OC)-c1n[nH]c(Nc3ccccc3Cl)c1C2` [Compound 9, (2-Chloro-phenyl)-(6,7-dimethoxy-2,4-dihydro-indeno[1,2-c]pyrazol-3-yl)-amine], where the note is “PDGF-R kinase activity”, the inhibition at 10 µM was determined as 89%.
As for `CCOc1cccc(Nc2[nH]nc3c2Cc2sccc2-3)c1` [Compound 405, (5,7-Dihydro-1-thia-4,5-diaza-cyclopenta[a]pentalen-6-yl)-(3-ethoxy-phenyl)-amine], the inhibition at 10 µM (PDGF-R kinase activity) is 94.5%. Further, the half-maximal inhibitory concentration (IC50) under setting [2] stood at 0.0635 µM.
Taken in the same sequence, the figures for `Cc1cccc(Nc2[nH]nc3c2Cc2cc(F)ccc2-3)c1` [Compound 240, (6-Fluoro-2,4-dihydro-indeno[1,2-c]pyrazol-3-yl)-m-tolyl-amine] were 92% and 0.002 µM.
Take `COc1cc2c(cc1OC)C(C)c1c-2n[nH]c1Nc1cc(F)ccc1F` (stereo not shown) [Compound 252, (2,5-Difluoro-phenyl)-(6,7-dimethoxy-4-methyl-2,4-dihydro-indeno[1,2-c]pyrazol-3-yl)-amine]: the inhibition at 10 µM (PDGF-R kinase activity) is 16%.
Regarding `COc1cc2c(cc1OC)-c1n[nH]c(Nc3ccco3)c1C2` [Compound 78, (6,7-Dimethoxy-2,4-dihydro-indeno[1,2-c]pyrazol-3-yl)-furan-2-yl-amine], the inhibition at 10 µM (PDGF-R kinase activity) came out at 85%. Also, the IC50 under setting [2] was 1.29 µM.
`COc1cc2c(cc1OC)-c1n[nH]c(N3CCc4ccccc43)c1C2` [Compound 566, 3-(2,3-Dihydro-indol-1-yl)-6,7-dimethoxy-2,4-dihydro-indeno[1,2-c]pyrazole]: the inhibition at 10 µM (PDGF-R kinase activity) was found to be 54%.
With `CC(C)(C)c1cc(Nc2[nH]nc3c2Cc2cc(F)ccc2-3)cc(C(C)(C)C)c1` [Compound 303, (3,5-Di-tert-butyl-phenyl)-(6-fluoro-2,4-dihydro-indeno[1,2-c]pyrazol-3-yl)-amine], the inhibition at 10 µM (PDGF-R kinase activity) was 50%. Also, the IC50 under setting [2] turned out to be 9.34 µM.
